# Reference: patent US5284826A, “0-hydroxyethyl and acyloxyethyl derivatives of [ser]^8 cyclosporins” (Sandoz Ltd., priority 1989, dated 1994)
# Assay: Stability of solid-state forms
# Format: physicochemical
# Settings: B form (hydrate from acetone/water) compared with amorphous form and A and C modifications
# From the text: Cyclosporins according to the invention may exist in the solid state in amorphous form or in one or more crystalline forms. For example, the compound of Example 2 below exists in amorphous form or in at least three crystalline forms, distinguishable by X-ray diffraction and designated the A, B and C modifications.
structure (smiles),measurement,value
"C/C=C/C[C@@H](C)[C@@H](O)[C@H]1C(=O)N[C@@H](CC)C(=O)N(C)CC(=O)N(C)[C@@H](CC(C)C)C(=O)N[C@@H](C(C)C)C(=O)N(C)[C@@H](CC(C)C)C(=O)N[C@@H](C)C(=O)N[C@H](COCCO)C(=O)N(C)[C@@H](CC(C)C)C(=O)N(C)[C@@H](CC(C)C)C(=O)N(C)[C@@H](C(C)C)C(=O)N1C [Example 2, [O-(2-hydroxyethyl)(D)Ser]^8 -Ciclosporin]",stability of crystal form,most stable
